The experiment addresses GABA-B receptor (Rattus norvegicus (Rat), UniProt O88871+Q9Z0U4). The experiment can be described thus: [35S]GTPgS binding assay, rat cortical membranes, in presence of EC25 GABA. Particulars: rat brain cortex membranes; in presence of 1 μM GABA (EC25); positive allosteric modulation. It counts as biochemical. The method, then: Preparation of Rat Brain Membranes for Native Receptor Assays
Membranes from rat brain cortex were prepared as described in detail by Olpe et al. and stored at concentrations of 1.66 mg/mL protein at −80° C. until required. (Olpe, H.-R, et al. Eur J Pharmacol 1990; 187: 27-38).
[^35S] GTPgS Binding Assay
The composition of the assay mixtures [in a final volume of 200 μL in 96-well U-bottom plates (Greiner) was as follows: 50 mM Tris-HCl buffer, pH 7.7, 10 mM MgCl2, 0.2 mM EGTA, 2 mM CaCl2, 100 mM NaCl, 20 µM guanosine 5′-diphosphate (Sigma), 0.3 nM [^35S]GTPgS (1250 Ci/mmol (PerkinElmer)), and the test compounds at increasing concentrations (from 10 nM up to […]), […] of rat cortical membranes, and a concentration of […], that has been observed in previous experiments to correspond to the EC25, a concentration that gives 25% of the maximal response of GABA. The samples were incubated at room temperature for 60 minutes on a shaker. The incubation was stopped by rapid vacuum filtration over glass-fiber filter plates (UniFilter-96 well, GF/B membrane plates, PerkinElmer) using a 96-well plate harvester (TOMTEK© Harvester). The UniFilter plate was washed five times with ice-cold wash buffer (50 mM Tris-HCl buffer, pH 7.7, 10 mM MgCl2, and 100 mM NaCl. After filtration the plate was dried for 90 minutes at 55° C. The plates were closed on the bottom with black sealing membranes, and liquid scintillation cocktail (35 μL, Betaplate Scint, PerkinElmer) was added to each well. After sealing the top of the plate, an additional incubation step of 90 minutes at room temperature followed before measuring the plate. The amount of membrane-bound [^35S]GTPgS was measured using a 96-well plate reader (Microbeta®, PerkinElmer). Nonspecific binding was measured in the presence of unlabeled 10 μM of GTPgS (Millipore) and without GABA. Basal binding was measured in the absence of 1 μM GABA, and maximal binding was measured in the presence of GABA using 1 mM GABA concentrations.
Data analysis. The concentration-response curves of compounds of the present disclosure in the presence of EC25 of GABA-B receptor agonist were generated using the GraphPad Prism® program (GraphPad Software, San Diego, Calif.). Data was normalized using basal binding as 0% and maximal binding as 100%. The curves were fitted by nonlinear regression allowing determination of EC50 values from sigmoidal dose-response curves. Each curve was performed using triplicate sample per date point and 10 concentrations.

Structures are written as SMILES.

Chain of GABA-B receptor (Q9Z0U4 17-960): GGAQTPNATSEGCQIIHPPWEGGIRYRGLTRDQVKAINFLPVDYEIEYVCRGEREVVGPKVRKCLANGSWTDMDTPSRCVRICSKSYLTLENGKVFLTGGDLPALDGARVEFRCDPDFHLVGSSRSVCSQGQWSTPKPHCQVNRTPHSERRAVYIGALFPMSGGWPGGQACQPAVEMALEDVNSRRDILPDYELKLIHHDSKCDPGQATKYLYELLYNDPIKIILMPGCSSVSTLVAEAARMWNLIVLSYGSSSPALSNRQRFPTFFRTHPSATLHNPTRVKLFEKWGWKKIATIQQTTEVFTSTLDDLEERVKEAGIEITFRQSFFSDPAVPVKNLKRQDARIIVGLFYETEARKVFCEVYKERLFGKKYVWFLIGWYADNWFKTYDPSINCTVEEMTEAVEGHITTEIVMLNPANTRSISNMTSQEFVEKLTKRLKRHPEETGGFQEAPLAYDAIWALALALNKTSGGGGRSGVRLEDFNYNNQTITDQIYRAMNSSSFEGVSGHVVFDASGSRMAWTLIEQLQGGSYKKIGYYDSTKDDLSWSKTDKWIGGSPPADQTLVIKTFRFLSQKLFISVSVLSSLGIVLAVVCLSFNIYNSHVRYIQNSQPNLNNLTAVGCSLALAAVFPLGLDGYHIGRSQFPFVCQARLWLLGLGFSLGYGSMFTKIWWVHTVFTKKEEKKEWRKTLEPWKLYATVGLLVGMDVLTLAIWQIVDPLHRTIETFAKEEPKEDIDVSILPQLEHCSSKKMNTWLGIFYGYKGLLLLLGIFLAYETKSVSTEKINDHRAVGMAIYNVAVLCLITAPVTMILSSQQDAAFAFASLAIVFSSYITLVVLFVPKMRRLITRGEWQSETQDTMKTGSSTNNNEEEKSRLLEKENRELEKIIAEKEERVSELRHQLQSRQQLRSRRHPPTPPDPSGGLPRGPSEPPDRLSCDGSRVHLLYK
Chain of GABA-B receptor (O88871 41-940): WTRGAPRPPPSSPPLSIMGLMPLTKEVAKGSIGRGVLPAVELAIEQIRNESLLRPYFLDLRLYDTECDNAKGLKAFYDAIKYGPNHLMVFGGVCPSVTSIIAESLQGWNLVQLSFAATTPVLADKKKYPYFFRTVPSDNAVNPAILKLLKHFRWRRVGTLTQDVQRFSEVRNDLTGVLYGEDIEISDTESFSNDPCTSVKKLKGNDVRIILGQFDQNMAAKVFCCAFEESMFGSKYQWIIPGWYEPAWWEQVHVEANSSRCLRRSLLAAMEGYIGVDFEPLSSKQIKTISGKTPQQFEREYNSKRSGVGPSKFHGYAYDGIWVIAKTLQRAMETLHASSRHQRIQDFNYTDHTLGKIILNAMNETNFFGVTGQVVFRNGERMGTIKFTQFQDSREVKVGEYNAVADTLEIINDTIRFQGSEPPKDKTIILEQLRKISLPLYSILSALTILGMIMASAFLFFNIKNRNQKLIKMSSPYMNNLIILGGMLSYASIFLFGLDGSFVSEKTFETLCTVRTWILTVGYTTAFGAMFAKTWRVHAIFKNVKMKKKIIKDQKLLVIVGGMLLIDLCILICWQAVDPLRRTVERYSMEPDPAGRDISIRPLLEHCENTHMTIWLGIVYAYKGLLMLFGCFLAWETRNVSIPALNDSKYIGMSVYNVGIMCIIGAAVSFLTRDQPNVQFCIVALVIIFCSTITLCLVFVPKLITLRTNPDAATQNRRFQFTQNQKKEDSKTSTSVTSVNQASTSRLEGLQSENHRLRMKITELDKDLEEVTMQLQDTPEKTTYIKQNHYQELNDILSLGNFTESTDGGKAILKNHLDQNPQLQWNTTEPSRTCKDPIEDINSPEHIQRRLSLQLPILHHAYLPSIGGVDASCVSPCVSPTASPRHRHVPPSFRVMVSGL

Turning to `Cc1cc(N2CCC[C@H](O)C2)n2nc(C(C)c3ccc(Cl)cc3)cc2n1` (stereo partly drawn) [Example 2-10, (3S)-1-{2-[1-(4-chlorophenyl)ethyl]-5-methylpyrazolo[1,5-a]pyrimidin-7-yl}piperidin-3-ol], the EC50 stood at 152 nM. Consider `Cc1cc(N2CCC[C@@H](O)C2)n2nc(C(C)c3ccc(Cl)cc3)cc2n1` (stereo partly drawn) [Example 2-11, (3R)-1-{2-[1-(4-chlorophenyl)ethyl]-5-methylpyrazolo[1,5-a]pyrimidin-7-yl}piperidin-3-ol], for which the EC50 was 57 nM. In the case of `Cc1cc(N2CCC2)n2nc(C(C)c3ccc(Cl)cc3)cc2n1` (centres unmarked) [Example 2-12, 7-(azetidin-1-yl)-2-[1-(4-chlorophenyl)ethyl]-5-methylpyrazolo[1,5-a]pyrimidine], the EC50 was 2820 nM. The value for `Cc1cc(N2CC3(CCOCC3)C2)n2nc(C(C)c3ccc(Cl)cc3)cc2n1` (centres unmarked) [Example 2-13, 2-[1-(4-chlorophenyl)ethyl]-5-methyl-7-(7-oxa-2-azaspiro[3.5]non-2-yl)pyrazolo[1,5-a]pyrimidine] was 446 nM; that for `Cc1cc(NC2CC(F)C2)n2nc(C(C)c3ccc(Cl)cc3)cc2n1` (centres unmarked) [Example 2-14, 2-[1-(4-chlorophenyl)ethyl]-N-(3-fluorocyclobutyl)-5-methylpyrazolo[1,5-a]pyrimidin-7-amine] was 165 nM.

As for `CC[C@@H]1CN(c2cc(C)nc3cc(C(C)c4ccc(Cl)cc4)nn23)[C@H]1C(=O)O` (stereo partly drawn) [Example 2-15, (2R,3R)-1-{2-[1-(4-chlorophenyl)ethyl]-5-methylpyrazolo[1,5-a]pyrimidin-7-yl}-3-ethylazetidine-2-carboxylic acid], the EC50 turned out to be 3930 nM. The value for `Cc1cc(NCC2CC(F)(F)C2)n2nc(C(C)c3ccc(Cl)cc3)cc2n1` (centres unmarked) [Example 2-16, 2-[1-(4-chlorophenyl)ethyl]-N-[(3,3-difluorocyclobutyl)methyl]-5-methylpyrazolo[1,5-a]pyrimidin-7-amine] was 586 nM; that for `CC(=O)N[C@H]1CCN(c2cc(C)nc3cc(C(C)c4ccc(Cl)cc4)nn23)C1` (stereo partly drawn) [Example 2-17, N-[(3S)-1-{2-[1-(4-chlorophenyl)ethyl]-5-methylpyrazolo[1,5-a]pyrimidin-7-yl}pyrrolidin-3-yl]acetamide] was 2180 nM; that for `Cc1cc(N2CCC3(CCC3O)C2)n2nc(C(C)c3ccc(Cl)cc3)cc2n1` (centres unmarked) [Example 2-20, 6-{2-[1-(4-chlorophenyl)ethyl]-5-methylpyrazolo[1,5-a]pyrimidin-7-yl}-6-azaspiro[3.4]octan-1-ol] was 93 nM. On to `Cc1cc(NC2CC(F)(F)C2)n2nc(C(C)c3ccc(Cl)cc3)cc2n1` (centres unmarked) [Example 2-21, 2-(1-(4-chlorophenyl)ethyl)-N-(3,3-difluorocyclobutyl)-5-methylpyrazolo[1,5-a]pyrimidin-7-amine], for which the EC50 turned out to be 394 nM. The value for `CC[C@@H]1CCCCN1c1cc(C)nc2cc(C(C)c3ccc(Cl)cc3)nn12` (stereo partly drawn) [Example 2-22, 2-[1-(4-chlorophenyl)ethyl]-7-[(2R)-2-ethylpiperidin-1-yl]-5-methylpyrazolo[1,5-a]pyrimidine] was 70 nM; that for `CC(=O)N[C@@H]1CCN(c2cc(C)nc3cc(C(C)c4ccc(Cl)cc4)nn23)C1` (stereo partly drawn) [Example 2-23, N-[(3R)-1-{2-[1-(4-chlorophenyl)ethyl]-5-methylpyrazolo[1,5-a]pyrimidin-7-yl}pyrrolidin-3-yl]acetamide] was 2730 nM. The value for `CCC(c1ccc(Cl)cc1)c1cc2nc(C)cc(N3CCCCC3CCO)n2n1` (centres unmarked) [Example 3-1, 2-(1-{2-[1-(4-chlorophenyl)propyl]-5-methylpyrazolo[1,5-a]pyrimidin-7-yl}piperidin-2-yl)ethanol] was 8 nM; that for `CCC(c1ccc(Cl)cc1)c1cc2nc(C)cc(N3CCCC(F)(F)C3)n2n1` (centres unmarked) [Example 3-2, 2-[1-(4-chlorophenyl)propyl]-7-(3,3-difluoropiperidin-1-yl)-5-methylpyrazolo[1,5-a]pyrimidine] was 14 nM.

By EC50 is commonly meant the concentration that produces a half-maximal response.

These data come from patent US9828381B2, “Substituted pyrazolopyrimidines and method of use” (AbbVie Deutschland GmbH & Co. KG, priority 2015, dated 2017).
